Reference: patent publication US10905704B2, “Agents and methods using thereof for the prevention and treatment of stem cell muscle disorders” (ECOLE POLYTECHNIQUE FEDERALE DE LAUSANNE (EPFL), priority 2015, dated 2021)

Key:
MuSCs [1] = assay: Senescence and apoptosis marker staining of MuSCs from NR-treated mice (γH2AX, β-galactosidase, cleaved CASP3); type: cell-based, C57BL/6J mice
Protocol: Histology. TA muscles were harvested and the immunestaining was performed as described in Example 2. The following antibodies were used: anti-γH2AX […] (Millipore), anti-activated-caspase3 (Cell signaling). Secondary antibodies were coupled to Alexa-488 or Alexa-568 fluorochromes (Life technology), and nuclei were stained with DAPI (Invitrogen). β-galactosidase assay. MuSCs were sorted directly and cultured primary MuSCs were grown on 8 chamber slides (Thermo Scientific). Senescence-associated β-galactosidase activity was detected using the senescence β-galactosidase staining kit (Cell signaling), according to manufacturer's instructions. Cell culture and treatments. FACS sorted MuSCs were grown on a 10% Matrigel (Corning)-coated dish and flasks with Fams F-10 media (Gibco), supplemented with 20% fetal bovine serum (FBS, Gibco), 2.5 ng/ml basic fibroblast growth factor (bFGF, Sigma) and penicillin/streptomycin (1×, Gibco). Dishes were coated with 10% growth factor-free Matrigel solution on ice for 7 min then transferred to a 37° C. cell culture incubator overnight before use. Cells were grown for three generations in vitro before experiments with cells plated and passaged at 10^3 cells/ml and 50% confluencies, respectively. C2C12 mouse myoblasts were grown in DMEM (4.5 g/1 glucose, Gibco) supplemented with 10% FBS and penicillin/streptomycin (1×, Gibco).

C2C12 myoblasts = assay: Respirometry on C2C12 myoblasts (OCR, ECAR); type: cell-based, mouse; conditions: C2C12 cells, NR vs PBS for 6 hours, FIG. 4J
Protocol: Cell culture and treatments were prepared according to description of Example 3. C2C12 mouse myoblasts were grown in DMEM (4.5 g/1 glucose, Gibco) supplemented with 10% FBS and penicillin/streptomycin (1×, Gibco). Cell transformation with Phb (Santa Cruz) and Phb2 shRNA (Santa Cruz) were performed using jetPEI DNA transfection kit (Polyplus), according to manufacturer's instructions. Cells were treated with 1 mM NR or PBS for 6 hours before cell harvesting or fixation. Respirometry on C2C12 myoblasts. Basal and uncoupled oxygen consumption rates (OCRs) and the extracellular acidification rate (ECAR) was measured using the Seahorse extracellular flux bioanalyzer (XF96, Seahorse Bioscience Inc.). To uncouple mitochondria, 5 uM of FCCP was injected after a basal respiration measurement. All measurements were performed in triplicates and results were normalized to total protein amount (C2C12 cells), assessed using a Bradford kit (Bio-Rad).

MuSCs [2] = assay: MuSCs transplantation from NR-treated aged donors into Mdx mice; type: in vivo; conditions: MuSCs from NR-treated aged donors vs controls, Mdx recipients, 4 weeks
Protocol: MuSCs transplantation. 5,000-8,000 double-sorted MuSCs isolated from NR or normal chow diet C57B/6J mice were resuspended in 10 μl of F10 media with 20% FBS and injected directly into cardiotoxin (CTX) pre-injured tibialis anterior (TA) muscle of Mdx mice 24hrs after the injury. The CTX pre-injury was performed as described above. Recipient mice were sacrificed 4 weeks after transplantation, TA muscle were harvested and prepared for cryosection.
Histology. TA muscles were harvested from anaesthetized mice and immediately frozen in Tissue-TEK® OCT compound (PST). 8-μm cryosections were collected and fixed with 4% paraformaldehyde, which are either stained with haematoxylin/eosin (HE) or antibodies. For immunostainings, heat activated antigen retrieval was performed in pH 6.0 citrate buffer for 10 min at 65° C. After washing with PBS-0.1% tween 20 (PBST), the sections were blocked with 10% affinipure Fab goat anti mouse IgG (Jackson Immunoresearch) in PBST for 60 min and PBST containing 2% BSA and 5% goat serum for 30 min at room temperature. Primary antibodies were then applied over night at 4° C. The following antibodies were used: anti-eMHC (Developmental Studies Hybridoma Bank, DSHB, University of Iowa), anti-Pax7 (DSHB, University of Iowa), anti-Laminin (Sigma). Subsequently, the slides were washed in PBST and incubated with appropriate secondary antibodies and labeling dyes. […]

Grip strength test = type: in vivo, C57BL/6J mice; conditions: aged mice, NR diet, FIG. 3G
Protocol: Grip strength test. Muscle strength was assessed by a grip strength behavior task. The grasp strength of each mouse for all four limbs was measured on a pull-grid assembly connected to a grip strength meter (Columbus Instruments). The mouse was drawn along a straight line parallel to the grid until the grip is broken, providing the peak force in grams. This was repeated 4 times with 5 minute intervals between measurements.

[3] = tested on: tibialis anterior (TA) muscle; assay: Cardiotoxin-induced muscle damage, regeneration of TA muscle; type: in vivo, C57BL/6J mice; conditions: for PAX7-positive MuSCs after CTX-induced damage: 7 days after CTX
Protocol: Cardiotoxin-induced muscle damage. Animals were anesthetized using Isoflurane in oxygen from a precision vaporizer. 50 μl of 20 μM Naje mossambica mossambica cardiotoxin (Sigma) was injected intramuscularly cross the skin and directly into the tibialis anterior (TA) muscle. Mice were sacrificed at 7 and 14 days after injury. TA muscles were immediately embedded in Thermo Scientific™ Shandon™ Cryomatrix™ and frozen in isopentane, cooled in liquid nitrogen, for 2 mins before being transferred to dry ice and stored at −80° C.
Histology. TA muscles were harvested from anaesthetized mice and immediately frozen in Tissue-TEK® OCT compound (PST). 8-μm cryosections were collected and fixed with 4% paraformaldehyde, which are either stained with haematoxylin/eosin (HE) or antibodies. For immunostainings, heat activated antigen retrieval was performed in pH 6.0 citrate buffer for 10 min at 65° C. After washing with PBS-0.1% tween 20 (PBST), the sections were blocked with 10% affinipure Fab goat anti mouse IgG (Jackson Immunoresearch) in PBST for 60 min and PBST containing 2% BSA and 5% goat serum for 30 min at room temperature. Primary antibodies were then applied over night at 4° C. The following antibodies were used: anti-eMHC (Developmental Studies Hybridoma Bank, DSHB, University of Iowa), anti-Pax7 (DSHB, University of Iowa), anti-Laminin (Sigma). Subsequently, the slides were washed in PBST and incubated with appropriate secondary antibodies and labeling dyes. For immunofluorescence, secondary antibodies were coupled to Alexa-488 or Alexa-568 fluorochromes (Life technology), and nuclei were stained with DAPI (Invitrogen). After washing in PBST, tissue sections were mounted with Dako mounting medium (Dako).

[4] = MuSCs from NR-treated mice cultured ex vivo for three generations

Compound: NC(=O)c1ccc[n+]([C@@H]2O[C@H](CO)[C@@H](O)[C@H]2O)c1 [NR, nicotinamide riboside]
- cleaved caspase-3 (CASP3) immunostaining (MuSCs [1]; [4]): reductions
- γH2AX positive nuclei (MuSCs [1]; [4]): reductions
- γH2AX positive nuclei (MuSCs [1]; freshly isolated MuSCs from aged mice, NR diet, FIG. 4A,B): staining was reduced
- β-galactosidase staining (senescence) (MuSCs [1]; freshly sorted MuSCs from aged mice, NR diet): reduction of the nuclear damage response was confirmed
- glycolysis (ECAR) (C2C12 myoblasts): reductions in glycolysis
- oxidative respiration (OCR) (C2C12 myoblasts): increases in oxidative respiration
- replenishment of MuSC compartment after transplantation (MuSCs [2]): more effectively replenished the MuSC compartment
- myogenesis of dystrophin-positive myofibers after transplantation (MuSCs [2]; FIG. 3N): stimulated myogenesis of dystrophin-positive myo fibers
- limb grip strength (Grip strength test): improvements
- muscle regeneration after CTX-induced muscle damage (H/E) ([3]; aged mice, 7 and 14 days of regeneration, FIG. 3H): accelerated muscle regeneration
- PAX7-positive MuSCs after CTX-induced damage ([3]; aged mice, FIG. 3I-J): increases in PAX7-positive MuSCs
- embryonic myosin heavy chain (eMyHC) staining, newly regenerated fibers ([3]; aged mice, 7 days after CTX-induced damage, FIG. 3L): improvements in embryonic myosin heavy chain staining
- MYOD1-positive PAX7 immunostained cells (stemness) ([3]; aged mice, 7 days after muscle damage, FIG. 3K): reduction in MYOD1-positive PAX7 immunostained cells
- muscle regeneration after CTX-induced muscle damage ([3]; young mice): accelerated muscle regeneration
- PAX7-positive MuSCs after CTX-induced damage ([3]; young mice): trend to increase
